Where “and” joins values, the source holds several entries; their conditions need not be identical. Equal values may be shown once. Results filed as inconclusive are left out.
Test system: MX-1 breast xenograft, intrarenal, nude mice, tumor weight
Test: NCI In Vivo Anticancer Drug Screen. Data for tumor model Human Mammary Carcinoma MX-1 Xenograft (intrarenal inoculation) in NU/NU BALB/C (nude) mice
Settings: endpoint: mean tumor weight change, higher = larger tumour
Method in brief: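 T/C readout: treated-group measurement over vehicle-control measurement, using tumor size or survival in tumor-bearing mice.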

CS(C)=O
T/C (dose: 750.0 mg/kg/injection, schedule: Q01DX010 (sc), vehicle: saline): 122 % of control
T/C (dose: 3000.0 mg/kg/injection, schedule: Q01DX010 (sc), vehicle: saline): 121 % of control

O=NN(CCCl)C(=O)NC1CCCCC1
T/C (dose: 4.0 mg/kg/injection, schedule: Q01DX010 (ip), vehicle: saline with Tween-80): 303 % of control
T/C (dose: 8.0 mg/kg/injection, schedule: Q01DX010 (ip), vehicle: saline with Tween-80): 248 % of control
T/C (dose: 8.0 mg/kg/injection, schedule: Q01DX010 (sc), vehicle: saline with Tween-80): 71 % of control
T/C (dose: 12.5 mg/kg/injection, schedule: Q04DX003 (sc), vehicle: Klucel (hydroxypropylcellulose) (HPC)): 66 % of control
T/C (dose: 13.33 mg/kg/injection, schedule: Q04DX003 (ip), vehicle: saline with Tween-80): 105 % of control
T/C (dose: 16.0 mg/kg/injection, schedule: Q01DX010 (ip), vehicle: saline with Tween-80): 263 % of control
T/C (dose: 16.0 mg/kg/injection, schedule: Q01DX010 (sc), vehicle: saline with Tween-80): 61 % of control
T/C (dose: 25.0 mg/kg/injection, schedule: Q04DX003 (sc), vehicle: Klucel (hydroxypropylcellulose) (HPC)): 67 % of control
T/C (dose: 26.65 mg/kg/injection, schedule: Q04DX003 (ip), vehicle: saline with Tween-80): 36 % of control
T/C (dose: 26.66 mg/kg/injection, schedule: Q04DX003 (sc), vehicle: saline with Tween-80): 64 % of control
T/C (dose: 32.0 mg/kg/injection, schedule: Q01DX010 (ip), vehicle: saline with Tween-80): 8 % of control
T/C (dose: 32.0 mg/kg/injection, schedule: Q01DX010 (sc), vehicle: saline with Tween-80): 3 % of control
T/C (dose: 50.0 mg/kg/injection, schedule: Q04DX003 (sc), vehicle: Klucel (hydroxypropylcellulose) (HPC)): 31 % of control
T/C (dose: 53.3 mg/kg/injection, schedule: Q04DX003 (ip), vehicle: saline with Tween-80): 42 % of control
T/C (dose: 53.33 mg/kg/injection, schedule: Q04DX003 (sc), vehicle: saline with Tween-80): 31 % of control

NC(=S)N/N=C/c1cc(=O)c2cc(Cl)ccc2o1
T/C (dose: 150.0 mg/kg/injection, schedule: Q04DX003 (ip), vehicle: other): 117 % of control
T/C (dose: 300.0 mg/kg/injection, schedule: Q04DX003 (ip), vehicle: other): 103 % of control
T/C (dose: 600.0 mg/kg/injection, schedule: Q04DX003 (ip), vehicle: other): 117 % of control
T/C (dose: 1200.0 mg/kg/injection, schedule: Q04DX003 (ip), vehicle: other): 106 % of control

C/C(=N\NC(=S)N1CCN(c2ccccn2)CC1)c1ccccn1
T/C (dose: 75.0 mg/kg/injection, schedule: Q04DX003 (sc), vehicle: water): 104 % of control

O=C(Nc1cccc(Cl)c1)ON1C(=O)C2C(C1=O)C1(Cl)C(Cl)C(Cl)C2(Cl)C1(Cl)Cl (centres undefined)
T/C (dose: 300.0 mg/kg/injection, schedule: Q04DX003 (sc), vehicle: saline with Tween-80): 91 % of control
T/C (dose: 600.0 mg/kg/injection, schedule: Q04DX003 (sc), vehicle: saline with Tween-80): 100 % of control
T/C (dose: 1200.0 mg/kg/injection, schedule: Q04DX003 (sc), vehicle: saline with Tween-80): 91 % of control
T/C (dose: 2400.0 mg/kg/injection, schedule: Q04DX003 (sc), vehicle: saline with Tween-80): 114 % of control

O=c1n(CC2CO2)c(=O)n(CC2CO2)c(=O)n1CC1CO1 (centres undefined)
T/C (dose: 25.0 mg/kg/injection, schedule: Q01DX010 (sc), vehicle: saline): 37 % of control
T/C (dose: 25.0 mg/kg/injection, schedule: Q04DX003 (sc), vehicle: suspension in saline): 18 % of control
T/C (dose: 50.0 mg/kg/injection, schedule: Q04DX003 (sc), vehicle: suspension in saline): -100 % of control

CC(=O)C1=C(O)C2(O)C(=O)c3c(c(C)c4ccc(C)c(O)c4c3O)CC2C(N)C1=O (centres undefined)
T/C (dose: 100.0 mg/kg/injection, schedule: Q04DX003 (sc), vehicle: saline): 89 % of control
T/C (dose: 200.0 mg/kg/injection, schedule: Q04DX003 (sc), vehicle: saline): 107 % of control
T/C (dose: 400.0 mg/kg/injection, schedule: Q04DX003 (sc), vehicle: saline): 98 % of control
T/C (dose: 800.0 mg/kg/injection, schedule: Q04DX003 (sc), vehicle: saline): 84 % of control

CO[C@@]12[C@@H]3N[C@@H]3CN1C1=C(C(=O)C(NCC3CCCO3)=C(C)C1=O)[C@@H]2COC(N)=O (some centres undefined)
T/C (dose: 6.25 mg/kg/injection, schedule: Q04DX003 (ip), vehicle: Klucel (hydroxypropylcellulose) (HPC)): 43 % of control
T/C (dose: 12.5 mg/kg/injection, schedule: Q04DX003 (ip), vehicle: Klucel (hydroxypropylcellulose) (HPC)): 56 % of control and 57 % of control
T/C (dose: 12.5 mg/kg/injection, schedule: Q04DX003 (ip), vehicle: distilled water + Tween-80): 1 % of control and 3 % of control
T/C (dose: 25.0 mg/kg/injection, schedule: Q04DX003 (ip), vehicle: Klucel (hydroxypropylcellulose) (HPC)): 35 % of control and 59 % of control
T/C (dose: 50.0 mg/kg/injection, schedule: Q04DX003 (ip), vehicle: Klucel (hydroxypropylcellulose) (HPC)): 28 % of control and 32 % of control
T/C (dose: 50.0 mg/kg/injection, schedule: Q04DX003 (ip), vehicle: distilled water + Tween-80): -4 % of control
T/C (dose: 100.0 mg/kg/injection, schedule: Q04DX003 (ip), vehicle: Klucel (hydroxypropylcellulose) (HPC)): 14 % of control

COC(COC(=O)N1CCN(C=O)CC1)C1=C(N2CC2)C(=O)C(C)=C(N2CC2)C1=O (centres undefined)
T/C (dose: 3.0 mg/kg/injection, schedule: Q04DX003 (ip), vehicle: saline): 5 % of control and -16 % of control

O=c1[nH]c(=O)n(C2CC(O)C(CO)O2)cc1F (centres undefined)
T/C (dose: 25.0 mg/kg/injection, schedule: Q01DX010 (sc), vehicle: water): 47 % of control and 68 % of control
T/C (dose: 100.0 mg/kg/injection, schedule: Q01DX010 (sc), vehicle: water): 15 % of control and 18 % of control

N/C(=N\O)c1cn(C2OC(CO)C(O)C2O)c2ncnc(N)c12 (centres undefined)
T/C (dose: 5.0 mg/kg/injection, schedule: Q04DX003 (sc), vehicle: Klucel (hydroxypropylcellulose) (HPC)): 91 % of control
T/C (dose: 10.0 mg/kg/injection, schedule: Q04DX003 (sc), vehicle: Klucel (hydroxypropylcellulose) (HPC)): 70 % of control

CNC(=S)C#N
T/C (dose: 75.0 mg/kg/injection, schedule: Q04DX003 (ip), vehicle: saline + Tween-80 + alcohol): 51 % of control

O=C(O)c1cc(C(=O)O)c(C(=O)O)cc1C(=O)O.[NH2-].[NH2-].[NH2-].[NH2-].[Pt+2].[Pt+2]
T/C (dose: 10.0 mg/kg/injection, schedule: Q04DX003 (ip), vehicle: water): 81 % of control
T/C (dose: 20.0 mg/kg/injection, schedule: Q04DX003 (ip), vehicle: water): 42 % of control
T/C (dose: 40.0 mg/kg/injection, schedule: Q04DX003 (ip), vehicle: water): 12 % of control

CN(C)CCCOc1nc2c(c(=O)n(C)c(=O)n2C)n1C (tested in a mixture with another compound)
T/C (dose: 37.5 mg/kg/injection, schedule: Q04DX003 (ip), vehicle: Klucel (hydroxypropylcellulose) (HPC)): 75 % of control
T/C (dose: 75.0 mg/kg/injection, schedule: Q04DX003 (ip), vehicle: Klucel (hydroxypropylcellulose) (HPC)): 63 % of control and 65 % of control
T/C (dose: 150.0 mg/kg/injection, schedule: Q04DX003 (ip), vehicle: Klucel (hydroxypropylcellulose) (HPC)): 58 % of control and 62 % of control
T/C (dose: 300.0 mg/kg/injection, schedule: Q04DX003 (ip), vehicle: Klucel (hydroxypropylcellulose) (HPC)): 19 % of control and 20 % of control

CC(/C=C/C=C/C=C/C=C/C=C/C(O)=C1/C(=O)C(CCC(=O)O)N(C)C1=O)=C\C(C)C(OC1CC(O)C(O)C(C)O1)C(C)C (centres undefined)
T/C (dose: 8.0 mg/kg/injection, schedule: Q04DX003 (ip), vehicle: water): 62 % of control
T/C (dose: 15.88 mg/kg/injection, schedule: Q04DX003 (ip), vehicle: water): 115 % of control
T/C (dose: 16.0 mg/kg/injection, schedule: Q04DX003 (ip), vehicle: water): 57 % of control
T/C (dose: 31.75 mg/kg/injection, schedule: Q04DX003 (ip), vehicle: water): 97 % of control
T/C (dose: 32.0 mg/kg/injection, schedule: Q04DX003 (ip), vehicle: water): 95 % of control
T/C (dose: 62.5 mg/kg/injection, schedule: Q04DX003 (ip), vehicle: water): 63 % of control
T/C (dose: 64.0 mg/kg/injection, schedule: Q04DX003 (ip), vehicle: water): 58 % of control
T/C (dose: 125.0 mg/kg/injection, schedule: Q04DX003 (ip), vehicle: water): 50 % of control

CCCCOCN(COCCCC)C12CC3CC(CC(C3)C1)C2
T/C (dose: 100.0 mg/kg/injection, schedule: Q04DX003 (sc), vehicle: saline with Tween-80): 48 % of control
T/C (dose: 200.0 mg/kg/injection, schedule: Q04DX003 (sc), vehicle: saline with Tween-80): 45 % of control
T/C (dose: 400.0 mg/kg/injection, schedule: Q04DX003 (sc), vehicle: saline with Tween-80): 76 % of control

Nc1ncnc2c1ncn2C1OC(CO)C(O)C1O (centres undefined)
T/C (dose: 150.0 mg/kg/injection, schedule: Q04DX003 (sc), vehicle: saline): 3 % of control and 23 % of control

CC(=O)OCC1OC(n2cc(CBr)nn2)C(OC(C)=O)C(OC(C)=O)C1OC(C)=O (centres undefined)
T/C (dose: 25.0 mg/kg/injection, schedule: Q01DX010 (sc), vehicle: saline with Tween-80): 92 % of control
T/C (dose: 50.0 mg/kg/injection, schedule: Q01DX010 (sc), vehicle: saline with Tween-80): 94 % of control
T/C (dose: 100.0 mg/kg/injection, schedule: Q01DX010 (sc), vehicle: saline with Tween-80): 95 % of control
T/C (dose: 200.0 mg/kg/injection, schedule: Q01DX010 (sc), vehicle: saline with Tween-80): 87 % of control
